Results on 20 compounds are retold here after patent US9802960B2 (MILLENNIUM PHARMACEUTICALS, INC., priority 2014, dated 2017).

In general, inhibition refers to the change of the read-out against control, counted positive when it falls.

Chain of Human VPS34 (Q8NEB9 whole entry): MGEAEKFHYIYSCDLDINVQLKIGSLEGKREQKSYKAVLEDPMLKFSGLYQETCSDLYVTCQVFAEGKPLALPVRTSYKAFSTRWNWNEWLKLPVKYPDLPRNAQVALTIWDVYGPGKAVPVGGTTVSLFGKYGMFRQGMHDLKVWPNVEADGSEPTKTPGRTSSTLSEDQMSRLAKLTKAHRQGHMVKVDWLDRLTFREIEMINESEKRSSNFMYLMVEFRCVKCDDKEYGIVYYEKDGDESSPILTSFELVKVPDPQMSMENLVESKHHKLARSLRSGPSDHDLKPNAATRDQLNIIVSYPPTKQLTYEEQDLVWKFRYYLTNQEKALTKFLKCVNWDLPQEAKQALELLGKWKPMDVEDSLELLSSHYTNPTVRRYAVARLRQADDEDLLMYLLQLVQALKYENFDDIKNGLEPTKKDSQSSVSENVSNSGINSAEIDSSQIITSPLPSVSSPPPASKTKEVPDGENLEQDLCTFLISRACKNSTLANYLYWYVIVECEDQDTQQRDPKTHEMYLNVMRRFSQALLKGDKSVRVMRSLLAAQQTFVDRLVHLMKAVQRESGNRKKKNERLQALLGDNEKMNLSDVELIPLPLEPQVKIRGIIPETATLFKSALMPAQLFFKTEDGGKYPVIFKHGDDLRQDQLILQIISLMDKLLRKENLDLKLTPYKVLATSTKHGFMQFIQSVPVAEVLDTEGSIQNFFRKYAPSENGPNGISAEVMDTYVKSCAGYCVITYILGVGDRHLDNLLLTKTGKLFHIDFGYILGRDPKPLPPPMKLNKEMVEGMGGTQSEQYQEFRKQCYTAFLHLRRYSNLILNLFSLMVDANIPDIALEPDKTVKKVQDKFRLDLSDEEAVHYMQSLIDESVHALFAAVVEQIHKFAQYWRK

The first assay concerns the target Human VPS34 (Homo sapiens (Human), UniProt Q8NEB9). Briefly: Human VPS34 enzyme assay (Adapta TR-FRET). It is filed as biochemical. As to conditions: compound concentration 1.11 μM; read-out: Percent Inhibition. (Time-resolved FRET reads energy transfer from a long-lived donor to a nearby acceptor.)
As for `Cc1c(-c2ccnc(NC(=O)C3CC3)c2)cnc(Cl)c1NS(=O)(=O)c1ccc(F)cc1F` [Compound I-308, N-(6-chloro-5-{[(2,4-difluorophenyl)sulfonyl]amino}-4-methyl-3,4′-bipyridin-2′-yl)cyclopropane carboxamide], the inhibition at 1.11 µM was greater than 99%.
As to `CC(=O)Nc1cc(-c2cnc3[nH]cc(S(=O)(=O)N4CCN(C)CC4)c3c2)ccn1` [Compound I-103, N-(4-{3-[(4-methylpiperazin-1-yl)sulfonyl]-1H-pyrrolo[2,3-b]pyridin-5-yl}pyridin-2-yl)acetamide], the inhibition at 1.11 µM was greater than 99%.
On to `CC(=O)Nc1cc(-c2cnc(NCC3CC3)c(NCC3CC3)c2)ccn1` [Compound I-65, N-{5,6-bis[(cyclopropylmethyl)amino]-3,4′-bipyridin-2′-yl}acetamide], for which the inhibition at 1.11 µM was determined as 93%.
Same read-out and setting: as for `CCOCCS(=O)(=O)c1cc(-c2ccnc(NC(C)=O)c2)cnc1N` [Compound I-145, N-{6-amino-5-[(2-ethoxyethyl)sulfonyl]-3,4′-bipyridin-2′-yl}acetamide], the figure is greater than 99%; as for `Cc1nccc(Nc2cc(-c3cnc(C)c(C(=S)N4CCC4)c3)ccn2)n1` [Compound I-223, Azetidin-1-yl{6-methyl-2′-[(2-methylpyrimidin-4-yl)amino]-3,4′-bipyridin-5-yl}methanethione], 95%; as for `CC(=O)Nc1cc(-c2cnc(C)c(NS(=O)(=O)c3ccccc3C(F)(F)F)c2)ccn1` [Compound I-62, N-[6-methyl-5-({[2-(trifluoromethyl)phenyl]sulfonyl}amino)-3,4′-bipyridin-2′-yl]acetamide], greater than 99%.
For `COc1cc(F)c(S(=O)(=O)Nc2cc(-c3ccnc(NC(C)=O)c3)cnc2C)cc1F` [Compound I-159, N-(5-{[(2,5-difluoro-4-methoxyphenyl)sulfonyl]amino}-6-methyl-3,4′-bipyridin-2′-yl)acetamide], the inhibition at 1.11 µM is greater than 99%.
With `CC(=O)Nc1cc(-c2cnc(C)c(NS(=O)(=O)c3ccc(C#N)cc3F)c2)ccn1` [Compound I-356, N-(5-{[(4-cyano-2-fluorophenyl)sulfonyl]amino}-6-methyl-3,4′-bipyridin-2′-yl)acetamide], the inhibition at 1.11 µM is greater than 99%.
For the compound `CC(=O)Nc1cc(-c2cncc(NS(=O)(=O)c3ccc(F)cc3F)c2Cl)ccn1` [Compound I-394, N-(4-chloro-5-{[(2,4-difluorophenyl)sulfonyl]amino}-3,4′-bipyridin-2′-yl)acetamide], the inhibition at 1.11 µM is greater than 99%.
Turning to `CC(=O)Nc1cc(-c2cnc(C)c(NS(=O)(=O)c3ccccc3F)c2)ccn1` [Compound I-144, N-(5-{[(2-fluorophenyl)sulfonyl]amino}-6-methyl-3,4′-bipyridin-2′-yl)acetamide], the inhibition at 1.11 µM is greater than 99%.
On to `CNC1CN(c2cc(-c3ccnc(NC(C)=O)c3)cnc2C)S(=O)(=O)C1` (stereo not drawn) [Compound I-325, N-{6-methyl-5-[4-(methylamino)-1,1-dioxidoisothiazolidin-2-yl]-3,4′-bipyridin-2′-yl}acetamide], for which the inhibition at 1.11 µM was greater than 99%.
Same read-out and setting: the same measure for `CCOc1cc(-c2ccnc(Nc3ccnc(C)n3)c2)cnc1C` [Compound I-479, 5-ethoxy-6-methyl-N-(2-methylpyrimidin-4-yl)-3,4′-bipyridin-2′-amine]: 98%; for `Cc1ncc(-c2ccnc(Nc3ccn(C)n3)c2)cc1NS(=O)(=O)c1ccc(F)cc1F` [Compound I-301, 2,4-difluoro-N-{6-methyl-2′-[(1-methyl-1H-pyrazol-3-yl)amino]-3,4′-bipyridin-5-yl}benzenesulfonamide]: 96%; for `CC(=O)Nc1cc(-c2cnc(C)c(NS(=O)(=O)N3CCCCC3)c2)ccn1` [Compound I-214, N-{6-methyl-5-[(piperidin-1-ylsulfonyl)amino]-3,4′-bipyridin-2′-yl}acetamide]: greater than 99%.
Still for that read-out and setting: as for `CC(=O)Nc1cc(-c2cnc(C)c(NS(=O)(=O)c3ccsc3)c2)ccn1` [Compound I-203, N-{6-methyl-5-[(3-thienylsulfonyl)amino]-3,4′-bipyridin-2′-yl}acetamide], the figure is greater than 99%.
With `CC(=O)Nc1cc(-c2cnc(Cl)c(NS(=O)(=O)c3ccccc3)c2C)ccn1` [Compound I-312, N-{6-chloro-4-methyl-5-[(phenylsulfonyl)amino]-3,4′-bipyridin-2′-yl}acetamide], the inhibition at 1.11 µM is greater than 99%.
Consider `CC(=O)Nc1cc(-c2cnc(C)c(N(C)S(=O)(=O)C3CC3)c2)ccn1` [Compound I-212, N-{5-[(cyclopropylsulfonyl)(methyl)amino]-6-methyl-3,4′-bipyridin-2′-yl}acetamide], for which the inhibition at 1.11 µM was found to be 95%.
In the case of `CC(=O)Nc1cc(-c2cncc(S(C)(=O)=O)c2)ccn1` [Compound I-51, N-[5-(methylsulfonyl)-3,4′-bipyridin-2′-yl]acetamide], the inhibition at 1.11 µM stood at 91%.
For `CC(=O)Nc1cc(-c2cncc(N3CCCS3(=O)=O)c2)ccn1` [Compound I-192, N-[5-(1,1-dioxidoisothiazolidin-2-yl)-3,4′-bipyridin-2′-yl]acetamide], the inhibition at 1.11 µM was greater than 99%.
Still for that read-out and setting: the same measure for `CC(=O)Nc1cc(-c2cnc3[nH]cc(S(=O)(=O)N(C)C)c3c2)ccn1` [Compound I-40, N-{4-[3-(dimethylsulfamoyl)-1H-pyrrolo[2,3-b]pyridin-5-yl]pyridin-2-yl}acetamide]: greater than 99%.

The next assay has as its system PC9 cell line. Briefly: Cellular assay for anti-proliferative activity in combination with a second therapeutic agent (Cell Titer Glo), PC9. As to conditions: in combination with AZD9291, call from Combination Index. It is filed as cell-based, human. Here is the method:
Cells were plated in […] of media in 384 well plates at 1,000 cells per well (A431, PC9, and NCI-H1650 cell lines), 1,500 cells per well (NCI-H1975) or 2,000 cells per well ([…]). The plates were incubated for 24 hrs at 37° C., 6% CO2. The test compounds (see Table 38 below) were diluted serially, and 62.5 nL of each compound solution (or DMSO, if it is a single agent experiment) is added so the total added to the cells is 125 nL. Cell plates were incubated for 72 hrs at 37° C., 6% CO2. Cell Titer Glo reagent (Promega) was added. The plates were then incubated for 10 minutes at room temperature before luminescence was read on a plate reader such as the Pherastar Plus, Pherastar FS, or LEADSeeker imaging system.
Bliss antagonism was defined similarly.
Bliss dependence was defined as the percent cell survival at a certain dose combination divided by the percent cell survival predicted by Bliss independence. More specifically, the Bliss dependence is vAB/(vA*vB), where vAB is the viability with drug A and drug B added, while vA and vB are the viabilities with each drug alone. […]
Another way to evaluate additivity is through consideration of Loewe additivity. […] For Bliss independence, the boundary between additivity and synergy must be measured. […]
Synergy can also be measured by nonlinear blending synergy. […]
(Cellular ATP, detected with luciferase, serves as a proxy for viable cell number.)
Turning to `Cc1c(-c2ccnc(NC(=O)C3CC3)c2)cnc(Cl)c1NS(=O)(=O)c1ccc(F)cc1F` [Compound I-308, N-(6-chloro-5-{[(2,4-difluorophenyl)sulfonyl]amino}-4-methyl-3,4′-bipyridin-2′-yl)cyclopropane carboxamide], the Meaning entry is “SubAdditivity”.
